This note sets out measurements from patent publication US20240254103A9, “NOVEL PYRIMIDINE DERIVATIVE, AND COMPOSITION FOR PREVENTING OR TREATING NEURODEGENERATIVE DISEASES AND CANCER, COMPRISING SAME” (WHAN IN PHARMACEUTICAL CO., LTD., priority 2020, published 2024).

One series addresses T1, mutant LRRK2 (G2019S) (Homo sapiens, UniProt Q5S007, G2019S).
T1 construct: DNA tag for qPCR detection (not a peptide; the protein part that carries it is not described); made in house; host or cells: HEK 293 cells (the same paragraph also describes T7 phage grown in E. coli BL21)
As to the kind of experiment: Inhibitory activity against LRRK2: competition binding to ligand-affinity beads, DNA-tagged kinase quantitated by qPCR. As to conditions: 100 nM compound; % of ctrl; read-out: Remaining kinase activity(%) at 100 nM LRRK2(G2019Smutant). In a few lines: (§1)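 Human LRRK2 H970–E2527, wild type or G2019S, was expressed as DNA-tagged kinase (T7 phage in E. coli or HEK293) and competed for 1 h against a biotinylated ligand on streptavidin beads. Bound kinase was eluted with 0.5 µM free ligand and quantified by qPCR. Values are % of control at 100 nM (both forms) and at 10 and 50 nM (wild type).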

A further series deals with T2, wild-type LRRK2 (Homo sapiens, UniProt Q5S007).
T2 construct: DNA tag for qPCR detection (not a peptide; the protein part that carries it is not described); made in house; host or cells: HEK 293 cells (the same paragraph also describes T7 phage grown in E. coli BL21)
Described as above. As to conditions: % of ctrl; for remaining binding at 0.1 µM: 100 nM compound, read-out: Remaining kinase activity(%) at 100 nM LRRK2(WT). The procedure, abridged: as §1

A short description of series [1]: Blood-brain barrier (BBB) penetration, LC-MS/MS of plasma and brain tissue after oral administration. Format: in vivo. The settings on record: oral 10 mg/kg, three hours after administration. Here is the method:
Test substances were each orally administered at a dose of 10 mg/kg. Three hours later, the animals were sacrificed and blood samples were immediately taken from the heart and centrifuged to obtain plasma samples. In order to remove the blood remaining in the body, 20 ml of saline containing 10 U/ml heparin were perfused through the heart, after which the brain was excised. The brain was homogenized together with three volumes of a PBS buffer. For quantitative analysis in the prepared plasma and brain tissue, advantage was taken of LC-MS/MS (Agilent, Santa Clara, Calif., USA). Separation in LC was conducted with a mobile phase consisting of 80% of acetonitrile and 20% of water containing 0.1% formic acid. For each substance, the eluting buffer was run for a total of 3 minutes at a flow rate of 0.3 ml/min. Each substance was quantitated using a multiple reaction monitoring method (for comparative compounds 4 and 5, the oral Parkinson's disease drugs DNL-151 and DNL-201 were used as LRRK2 protein inhibitors, respectively).

Some results are limits rather than exact numbers.

T1 sequence (Q5S007 970-2527 G2019S): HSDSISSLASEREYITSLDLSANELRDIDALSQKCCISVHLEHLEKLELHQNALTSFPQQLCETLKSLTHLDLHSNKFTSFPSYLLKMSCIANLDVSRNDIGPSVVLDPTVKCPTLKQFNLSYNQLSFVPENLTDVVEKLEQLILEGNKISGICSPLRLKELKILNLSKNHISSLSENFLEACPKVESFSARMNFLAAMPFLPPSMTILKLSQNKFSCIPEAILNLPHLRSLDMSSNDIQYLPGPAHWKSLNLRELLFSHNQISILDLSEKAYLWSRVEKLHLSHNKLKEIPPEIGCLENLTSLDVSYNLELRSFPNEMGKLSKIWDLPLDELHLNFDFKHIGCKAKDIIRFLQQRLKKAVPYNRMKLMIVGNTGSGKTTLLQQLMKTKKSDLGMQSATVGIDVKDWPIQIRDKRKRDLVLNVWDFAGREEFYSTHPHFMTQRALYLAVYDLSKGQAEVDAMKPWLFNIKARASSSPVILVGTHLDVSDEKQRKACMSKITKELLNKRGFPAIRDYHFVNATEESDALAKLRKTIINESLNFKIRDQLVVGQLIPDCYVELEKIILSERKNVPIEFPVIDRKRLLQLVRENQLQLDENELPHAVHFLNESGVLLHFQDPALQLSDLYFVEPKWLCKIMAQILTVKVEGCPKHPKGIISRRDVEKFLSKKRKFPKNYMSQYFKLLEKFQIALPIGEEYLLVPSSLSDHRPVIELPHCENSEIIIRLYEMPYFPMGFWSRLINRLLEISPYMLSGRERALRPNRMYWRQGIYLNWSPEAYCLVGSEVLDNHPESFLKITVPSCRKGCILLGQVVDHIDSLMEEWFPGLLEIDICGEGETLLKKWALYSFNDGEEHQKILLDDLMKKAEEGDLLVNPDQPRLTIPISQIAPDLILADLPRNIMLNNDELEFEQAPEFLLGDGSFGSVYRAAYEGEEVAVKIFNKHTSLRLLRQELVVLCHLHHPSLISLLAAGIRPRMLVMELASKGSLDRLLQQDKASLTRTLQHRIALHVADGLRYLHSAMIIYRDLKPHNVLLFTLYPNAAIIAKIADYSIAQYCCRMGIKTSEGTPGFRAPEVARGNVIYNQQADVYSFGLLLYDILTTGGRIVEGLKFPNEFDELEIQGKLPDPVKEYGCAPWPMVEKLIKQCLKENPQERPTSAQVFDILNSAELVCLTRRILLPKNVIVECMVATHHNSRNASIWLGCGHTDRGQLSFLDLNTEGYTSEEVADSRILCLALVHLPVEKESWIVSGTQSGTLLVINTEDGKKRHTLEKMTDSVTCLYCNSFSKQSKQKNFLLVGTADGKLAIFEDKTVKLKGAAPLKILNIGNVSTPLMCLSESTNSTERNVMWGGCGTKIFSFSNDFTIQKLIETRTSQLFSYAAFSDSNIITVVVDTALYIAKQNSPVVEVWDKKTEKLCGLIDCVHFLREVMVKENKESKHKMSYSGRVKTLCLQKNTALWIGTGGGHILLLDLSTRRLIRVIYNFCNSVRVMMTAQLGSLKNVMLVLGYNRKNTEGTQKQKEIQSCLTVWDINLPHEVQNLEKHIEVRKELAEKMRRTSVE
T2 sequence (Q5S007 970-2527): as the sequence (Q5S007 970-2527 G2019S) above, with S1050G counted along it

Consider `COc1cc(C(=O)N2CCN(C(C)C)CC2)ccc1Nc1ncc(Cl)c(-c2cnn(C)c2)n1` [Compound 34, (4-((5-chloro-4-(1-methyl-1H-pyrazol-4-yl)pyrimidin-2-yl)amino)-3-methoxyphenyl)(4-isopropylpiperazin-1-yl)methanone], for which the remaining binding at 0.1 µM on mutant LRRK2 (G2019S) was under 30%; at wild-type LRRK2, under 10%.
For `COc1cc(C(=O)N2CCC3(CC2)COC3)ccc1Nc1ncc(Cl)c(-c2cnn(C3CCOCC3)c2)n1` [Compound 35, (4-((5-chloro-4-(1-(tetrahydro-2H-pyran-4-yl)-1H-pyrazol-4-yl)pyrimidin-2-yl)amino)-3-methoxyphenyl)(2-oxa-7-azaspiro[3.5]nonan-7-yl)methanone], the remaining binding at 0.1 µM at mutant LRRK2 (G2019S) was under 10%; on wild-type LRRK2, under 30%.
With `COc1cc(C(=O)N2CCOCC2)ccc1Nc1ncc(Cl)c(-c2cnn(C(C)C)c2)n1` [Compound 37, (4-((5-chloro-4-(1-isopropyl-1H-pyrazol-4-yl)pyrimidin-2-yl)amino)-3-methoxyphenyl)(morpholino)methanone], the remaining binding at 0.1 µM on mutant LRRK2 (G2019S) and at wild-type LRRK2 was under 10% throughout. Besides, on wild-type LRRK2 (10 nM compound, read-out: LRRK2(WT) Remaining kinase activity(%) at 10 nM), the remaining binding at 0.01 µM is under 50%. In addition, on wild-type LRRK2 (50 nM compound, read-out: LRRK2(WT) Remaining kinase activity(%) at 50 nM), the remaining binding at 0.05 µM was under 30%. For the same compound, in series [1], the “effective concentration in the brain tissue, fold higher compared to comparative compound-4 (DNL-151)” value was 1.64 fold. Further, the “effective concentration in the brain tissue, fold higher compared to comparative compound-5 (DNL-201)” value in series [1] was determined as 2.77 fold.
For the compound `COc1cc(C(=O)NC2CCN(C)CC2)ccc1Nc1ncc(Cl)c(-c2cnn(C)c2)n1` [Compound 38, 4-((5-chloro-4-(1-methyl-1H-pyrazol-4-yl)pyrimidin-2-yl)amino)-3-methoxy-N-(1-methylpiperidin-4-yl)benzamide], the remaining binding at 0.1 µM on mutant LRRK2 (G2019S) and on wild-type LRRK2 was under 10% each time.
As to `COc1cc(C(=O)N2CCC(F)(F)CC2)ccc1Nc1ncc(Cl)c(-c2cnn(C)c2)n1` [Compound 41, (4-((5-chloro-4-(1-methyl-1H-pyrazol-4-yl)pyrimidin-2-yl)amino)-3-methoxyphenyl)(4,4-difluoropiperidin-1-yl)methanone], the values for the remaining binding at 0.1 µM at mutant LRRK2 (G2019S) and at wild-type LRRK2 were under 50% and under 30%, respectively.
For `COc1cc(C(=O)N2CCOC(C)(C)C2)ccc1Nc1ncc(Cl)c(-c2cnn(C)c2)n1` [Compound 42, (4-((5-chloro-4-(1-methyl-1H-pyrazol-4-yl)pyrimidin-2-yl)amino)-3-methoxyphenyl)(2,2-dimethylmorpholino)methanone] the same measures were under 50% and under 30%.
For `COc1cc(C(=O)N2CC(N3CCOCC3)C2)ccc1Nc1ncc(Cl)c(-c2cnn(C)c2)n1` [Compound 43, (4-((5-chloro-4-(1-methyl-1H-pyrazol-4-yl)pyrimidin-2-yl)amino)-3-methoxyphenyl)(3-morpholinoazetidin-1-yl)methanone] the same measures were under 30% and under 10%.
In the case of `COc1cc(C(=O)N2CCN(C(C)=O)CC2)ccc1Nc1ncc(Cl)c(-c2cnn(C)c2)n1` [Compound 44, 1-(4-(4-((5-chloro-4-(1-methyl-1H-pyrazol-4-yl)pyrimidin-2-yl)amino)-3-methoxybenzoyl)piperazin-1-yl)ethan-1-one], the remaining binding at 0.1 µM on mutant LRRK2 (G2019S) was under 30%; at wild-type LRRK2, under 10%.
With `COc1cc(C(=O)N2CCN(C(C)C)CC2)ccc1Nc1ncc(C(F)(F)F)c(-c2cnn(C)c2)n1` [Compound 45, (4-isopropylpiperazin-1-yl)(3-methoxy-4-((4-(1-methyl-1H-pyrazol-4-yl)-5-(trifluoromethyl)pyrimidin-2-yl)amino)phenyl)methanone], the remaining binding at 0.1 µM at mutant LRRK2 (G2019S) and at wild-type LRRK2 was under 30% each time.
`COc1cc(C(=O)N2CCOCC2)c(F)cc1Nc1ncc(C(F)(F)F)c(-c2cnn(C)c2)n1` [Compound 46, (2-fluoro-5-methoxy-4-((4-(1-methyl-1H-pyrazol-4-yl)-5-(trifluoromethyl)pyrimidin-2-yl)amino)phenyl)(morpholino)methanone]: the remaining binding at 0.1 µM on mutant LRRK2 (G2019S) and on wild-type LRRK2 was under 10% throughout.
For `COc1cc(C(=O)N2CCOCC2)c(F)cc1Nc1ncc(Cl)c(-c2cnn(C(C)C)c2)n1` [Compound 49, (4-((5-chloro-4-(1-isopropyl-1H-pyrazol-4-yl)pyrimidin-2-yl)amino)-2-fluoro-5-methoxyphenyl)(morpholino)methanone], the remaining binding at 0.1 µM at mutant LRRK2 (G2019S) and at wild-type LRRK2 was under 10% each time.
`COc1cc(C(=O)N2CCN(C3COC3)CC2)ccc1Nc1ncc(Cl)c(-c2cnn(C)c2)n1` [Compound 50, (4-((5-chloro-4-(1-methyl-1H-pyrazol-4-yl)pyrimidin-2-yl)amino)-3-methoxyphenyl)(4-(oxetan-3-yl)piperazin-1-yl)methanone]: the remaining binding at 0.1 µM on mutant LRRK2 (G2019S) and at wild-type LRRK2 was under 10% throughout.
Consider `COc1cc(C(=O)N2C[C@H]3CC[C@@H](C2)O3)ccc1Nc1ncc(Cl)c(-c2cnn(C)c2)n1` [Compound 51, ((1R,5S)-8-oxa-3-azabicyclo[3.2.1]octan-3-yl)(4-((5-chloro-4-(1-methyl-1H-pyrazol-4-yl)pyrimidin-2-yl)amino)-3-methoxyphenyl)methanone], for which the remaining binding at 0.1 µM at mutant LRRK2 (G2019S) and on wild-type LRRK2 was under 30% in each case.
As for `COc1cc(C(=O)c2ccncc2)ccc1Nc1ncc(Cl)c(-c2cnn(C(C)C)c2)n1` [Compound 54, (4-((5-chloro-4-(1-isopropyl-1H-pyrazol-4-yl)pyrimidin-2-yl)amino)-3-methoxyphenyl)(pyridin-4-yl)methanone], the remaining binding at 0.1 µM at mutant LRRK2 (G2019S) was under 30%; at wild-type LRRK2, under 50%.
On to `CCn1cc(-c2nc(Nc3ccc(C(=O)N4CCOCC4)cc3OC)ncc2Cl)cn1` [Compound 56, (4-((5-chloro-4-(1-ethyl-1H-pyrazol-4-yl)pyrimidin-2-yl)amino)-3-methoxyphenyl)(morpholino)methanone], for which the remaining binding at 0.1 µM at mutant LRRK2 (G2019S) and at wild-type LRRK2 was under 10% in each case.
In the case of `CCCn1cc(-c2nc(Nc3ccc(C(=O)N4CCOCC4)cc3OC)ncc2Cl)cn1` [Compound 57, (4-((5-chloro-4-(1-propyl-1H-pyrazol-4-yl)pyrimidin-2-yl)amino)-3-methoxyphenyl)(morpholino)methanone], the remaining binding at 0.1 µM at mutant LRRK2 (G2019S) and on wild-type LRRK2 was under 10% throughout.
In the case of `COc1cc(C(=O)N2CCOCC2)ccc1Nc1ncc(Cl)c(-c2cnn(C3CC3)c2)n1` [Compound 58, (4-((5-chloro-4-(1-cyclopropyl-1H-pyrazol-4-yl)pyrimidin-2-yl)amino)-3-methoxyphenyl)(morpholino)methanone], the remaining binding at 0.1 µM was under 10% at mutant LRRK2 (G2019S) and under 30% at wild-type LRRK2.
Turning to `COc1cc(C(=O)N2CCOCC2)ccc1Nc1ncc(Cl)c(-c2cnn(C(C)(C)C)c2)n1` [Compound 59, (4-((4-(1-(tert-butyl)-1H-pyrazol-4-yl)-5-chloropyrimidin-2-yl)amino)-3-methoxyphenyl)(morpholino)methanone], the remaining binding at 0.1 µM on mutant LRRK2 (G2019S) and at wild-type LRRK2 was under 10% each time.
